From patent US6796966B2, “Apparatus, and kits for preventing of alleviating vasoconstriction or vasospasm in a mammal” (priority 1997, dated 2004)
Bridges are numbered along the chain shown (N, C = ends). Where no end group is shown, it is not given here.

Key:
[1] = in the presence of oxygen; cited from earlier work
basilar artery = test: Reversal of endothelin-1-induced cerebral vasoconstriction; suffusion of exposed basilar artery in sCSF, video microscopy; format: in vivo, New Zealand White rabbits
cerebral vasospasm = test: ITSNP therapy for alleviation and prevention of cerebral vasospasm after aneurysmal SAH, 16 patients; format: in vivo, human; details: pre-therapy administration
[2] = ET-1 100 nanomolar in sCSF, 1 milliliter per minute, Groups 4, 5, 6, n=38

For `[N]=O` [NO, nitric oxide], the half-life in vivo [1] is given as “measured in seconds”.
For `O=[N+]([O-])OCC(CO[N+](=O)[O-])O[N+](=O)[O-]` [NTG, nitroglycerine], the “change in baseline diameter of the basilar artery, substance alone” value (basilar artery; rabbit, in vivo) was “did not produce changes” and the “reversal of ET-1-induced vasoconstriction” value (basilar artery; rabbit, in vivo) was “rapid and pronounced vasodilation”.
With `Cc1nccn1CC1CCc2c(c3ccccc3n2C)C1=O` (stereo not drawn) [ondansetron] the “effect on nausea associated with ITSNP therapy” value (cerebral vasospasm) was “abolished”.
With “Endothelin-1 (CSCSSLMDKECVYFCHLDIIW; disulfide 1-15, 3-11; ends not checked; UniProt P05305 53-73, looked up) [ET-1]” the “reduction of arterial diameter began, after starting the delivery” value (basilar artery; [2]) was 5 to 8 min, the “reduction of arterial diameter complete within” value (basilar artery; [2]) was 20 to 30 min and the “average minimal diameter, % of baseline diameter” value (basilar artery; ET-1 100 nanomolar suffusion) was 50.4%. The “average minimal diameter of the artery” value (basilar artery; ET-1 100 nanomolar suffusion, baseline 992 microns) was 500 microns and the “return to baseline diameter after ET-1 when followed by sCSF alone” value (basilar artery; Group 4, n=15) was over 30 min.
